In article PMC5259778, “Candidate pheromone receptors of codling moth Cydia pomonella respond to pheromones and kairomones” (Scientific Reports, 2017):

Biological target: CpomOrco + OR6a (Cydia pomonella, UniProt H9A5M1)
Assay: Calcium imaging of HEK293T cells expressing CpomOrco + OR6a
Type: cell-based
Procedure: HEK293T cells were grown in HEK cell media [Dulbecco’s modified Eagle’s medium containing 10% fetal bovine serum (MP Biomedicals, Solon, OH, USA), 2.0 mM L-glutamine, and 100 μg/mL Penicillin/Streptomycin (Invitrogen)] at 37 °C and 5% CO2. To test transient expression of CpomORs for calcium imaging or patch-clamp recording experiments, 35-mm petri dishes containing semi-confluent HEK293T cells were transiently transfected. To transfect cells with CpomOrco, we used 1.0 μg of pcDNA5/TO/CpomOrco DNA. In order to promote expression of the OR[51], we used double aliquots for pcDNA5/TO/CpomOR DNAs (2.0 μg), combined with 1.0 μg of pcDNA5/TO/CpomOrco for co-transfections (CpomOrco + ORs). To report expression for calcium imaging experiments, 1.0 μg of a separate plasmid DNA [pEBFP2-Nuc, a gift from Robert Campbell (Addgene plasmid # 14893[52])] carrying the coding sequence for a blue fluorescent protein (BFP) was used. In patch-clamp recordings, 1.0 μg of a separate plasmid DNA (pXOOM, Clontech) carrying the coding sequence for a green fluorescent protein (GFP) was used to report expression. In order to report candidate OR-expressing cells, expression of both fluorescent reporter genes was under the regulation of the same promoter for CpomOR genes (CMV). Transfection DNAs were dissolved in 100 μL sterile DMEM, mixed with 3.0 μL Calfectin (SignaGen, Rockville, MD, USA) following the recommended protocol. To estimate transfection efficiency, a parallel transfection was conducted using the positive control vector pcDNA5/TO/LACZ (Invitrogen) and staining with 0.1% XGal[53].
Transfections were conducted overnight. HEK cell media was replaced with 1.0 mL fresh media to incubate cells at 37 °C for up to 6 h, at which point part of the cell culture was spread in the middle of a 35-mm plate as individual cells or small clusters. After 12 h of incubation at 37 °C and 5% CO2, cells were rinsed at the sides with 2.0 mL fresh HEK media. Cells were allowed to recover for at least 1 h prior to calcium imaging.
To test activation of olfactory receptors, CpomOrco or CpomOrco + ORs HEK293T cells were incubated for 1 h at room temperature in 0.5–1.0 mL HEK cell Ringer (mM: 140 NaCl, 5.0 KCl, 1.0 CaCl2, 1.0 MgCl2, 10 HEPES, 10 Glucose, pH 7.5) containing the fluorescent calcium indicator Fluo-4AM (Invitrogen) at 5–15 μM prepared with 0.2–0.06% Pluronic F-127 (Invitrogen). After incubation, the buffer was removed and cells were rinsed with 4.0 mL fresh HEK Ca^++ Ringer (mM: 140 NaCl, 2.0 CaCl2, 10 HEPES, pH 7.5), and placed on the stage of an inverted microscope (Olympus IX-71, Olympus Corp., Tokyo, Japan) equipped with a cooled CCD camera (ORCA R2, Hamamatsu, Hamamatsu City, Japan). Cells were continuously superfused with Ca^++ Ringer using two gravity fed perfusion contours. The […] contour washing the cells (~250 μL/min) was switched rapidly to the stimulus contour using a multi-channel rapid solution changer (RSC-160, Bio-Logic, Claix, France) under the software control of Clampex 9 (Molecular Devices, Sunnyvale, CA, USA).
Fluorescence imaging was performed using Imaging Workbench 6 software (INDEC BioSystems, Santa Clara, CA, USA). Each cell was assigned a region of interest (ROI) and changes in fluorescence intensity within each ROI were measured and expressed as the fractional change in fluorescence intensity (dF) or in some cases as dF/F0 where F0 is the basal fluorescence level before agonist application. […] Continuous traces of multiple responses were compensated for slow drift of the baseline fluorescence when necessary. All recordings were performed at room temperature (22–25 °C).
HEK293T cells expressing CpomOrco + OR6a, CpomOrco + OR3 and CpomOrco + OR1 were stimulated with an array of compounds such as: potential insect pheromone compounds and plant volatile synergists active on the olfactory system and behaviour of the codling moth[1][25], non-host plant volatiles active on other tortricids, the methyl pear-ester[33] […]

CpomOrco + OR6a, sequence (H9A5M1 entry or part of it): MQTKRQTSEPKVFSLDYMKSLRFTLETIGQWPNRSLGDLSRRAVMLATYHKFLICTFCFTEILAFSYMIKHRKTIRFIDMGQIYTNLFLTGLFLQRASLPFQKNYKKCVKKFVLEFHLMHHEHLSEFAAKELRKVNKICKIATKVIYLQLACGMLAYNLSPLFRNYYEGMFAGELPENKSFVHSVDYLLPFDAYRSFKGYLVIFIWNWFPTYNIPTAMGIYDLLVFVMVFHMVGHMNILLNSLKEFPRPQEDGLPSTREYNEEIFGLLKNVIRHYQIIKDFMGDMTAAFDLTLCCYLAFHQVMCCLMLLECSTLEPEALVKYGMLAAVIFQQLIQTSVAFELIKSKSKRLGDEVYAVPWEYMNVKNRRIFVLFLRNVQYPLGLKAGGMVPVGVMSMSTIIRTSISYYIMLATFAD
CpomOrco + OR6a, sequence (H9A5M2 entry or part of it, further chain): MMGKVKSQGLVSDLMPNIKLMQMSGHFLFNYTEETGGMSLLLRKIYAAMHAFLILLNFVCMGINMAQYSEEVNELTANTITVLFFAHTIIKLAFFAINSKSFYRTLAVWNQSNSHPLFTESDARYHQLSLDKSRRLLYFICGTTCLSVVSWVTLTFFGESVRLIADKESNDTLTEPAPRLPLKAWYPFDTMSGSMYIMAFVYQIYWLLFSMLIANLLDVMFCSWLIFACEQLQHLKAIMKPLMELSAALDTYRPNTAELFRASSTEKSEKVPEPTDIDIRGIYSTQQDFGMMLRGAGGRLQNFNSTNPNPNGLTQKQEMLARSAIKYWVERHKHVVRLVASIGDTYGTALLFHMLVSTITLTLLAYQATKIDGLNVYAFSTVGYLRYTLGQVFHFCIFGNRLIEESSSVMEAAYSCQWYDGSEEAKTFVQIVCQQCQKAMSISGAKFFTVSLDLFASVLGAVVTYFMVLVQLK

Row | amplitude of the calcium response (mean of the maximum response ± SEM) (100 μM, n = 70) [dF] | amplitude of the calcium response (mean of the maximum response ± SEM) (250 μM positive control, n = 68) [dF] | Structure (SMILES) | amplitude of the calcium response (mean of the maximum response ± SEM) (50 μM, n = 70) [dF] | amplitude of the calcium response (mean of the maximum response ± SEM) (1500 μM, n = 68) [dF] | Emax (HEK-293T, vs 250 μM VUAA3, read-out: amplitude at saturating concentrations relative to the positive control amplitude) [%] | EC50 (calcium response normalized to 250 μM VUAA3) [µM]
1 | 37.96 ± 20.98 | 69.71 ± 27.29 | CCn1c(SCC(=O)Nc2ccc(C(C)C)cc2)nnc1-c1ccncc1 [VUAA3, acetamide,2-[[4-ethyl-5-(4-pyridinyl)-4H-1,2,4-triazol-3-yl]thio]-N-[4-(1-methylethyl)phenyl]-] | – | – | – | –
2 | – | – | C/C=C/C=C/CCCCCCCOC(C)=O [codlemone acetate, (E,E)-8,10-dodecadien-1-yl acetate] | 12.04 ± 8.17 | 18.91 ± 10.31 | ~27 | 51.8 ± 13.2
3 | – | – | C/C=C/C=C/CCCCCCCO [codlemone, (E,E)-8,10-dodecadien-1-ol] | 0.38 ± 1.84 | 5.7 ± 3.64 | – | –
